Experimental data from patent publication US20180085330A1, “Dose Adjustment” (AbbVie Inc., priority 2016, published 2018).
Where two headings read alike, the source gives them in different places.

Tests used:
[1] = Drug interaction studies: pharmacokinetic parameters of coadministered drug in the presence of glecaprevir/pibrentasvir; type: in vivo, human
Protocol: Drug interaction studies were performed with glecaprevir/pibrentasvir and other drugs that are likely to be coadministered and with drugs commonly used as probes for pharmacokinetic interactions.

[2] = cited from earlier work
[3] = rilpivirine 25 mg once daily, GLE/PIB 300/120 mg once daily
[4] = valsartan 80 mg single dose, GLE/PIB 300/120 mg once daily
[5] = dextromethorphan hydrobromide 30 mg single dose, GLE/PIB 300/120 mg once daily
[6] = lovastatin 10 mg once daily, GLE/PIB 300/120 mg once daily
[7] = sofosbuvir 400 mg once daily, GLE/PIB 400/120 mg once daily
[8] = dabigatran etexilate 150 mg single dose, GLE/PIB 300/120 mg once daily
[9] = tacrolimus 1 mg single dose, GLE/PIB 300/120 mg once daily
[10] = losartan 50 mg single dose, GLE/PIB 300/120 mg once daily
[11] = simvastatin 5 mg once daily, GLE/PIB 300/120 mg once daily
[12] = EVG/COBI/FTC/TAF 150/150/200/10 mg once daily, GLE/PIB 300/120 mg once daily
[13] = EE/Levonorgestrel 20 μg/100 μg once daily, GLE/PIB 300/120 mg once daily
[14] = EE/Norgestimate 35 μg/250 μg once daily, GLE/PIB 300/120 mg once daily
[15] = omeprazole 20 mg single dose, GLE/PIB 300/120 mg once daily
[16] = raltegravir 400 mg twice daily, GLE/PIB 300/120 mg once daily
[17] = rosuvastatin coadministered with lopinavir/ritonavir
[18] = rosuvastatin 5 mg once daily, GLE/PIB 400/120 mg once daily
[19] = pravastatin coadministered with clarithromycin
[20] = pravastatin 10 mg once daily, GLE/PIB 400/120 mg once daily
[21] = EFV/FTC/TDF 300/200/300 mg once daily, GLE/PIB 300/120 mg once daily

SMILES: Cc1ncc2n1-c1ccc(Cl)cc1C(c1ccccc1F)=NC2 [Midazolam]
- Central Value Ratio (90% CI) AUC ([1]; midazolam 1 mg single dose, GLE/PIB 300/120 mg once dally): 1.27

SMILES: Cc1cc(/C=C/C#N)cc(C)c1Nc1ccnc(Nc2ccc(C#N)cc2)n1 [Rilpivirine]
- Central Value Ratio (90% CI) AUC [1, 3]: 1.84
- Central Value Ratio (90% CI) Cmax [1, 3]: 2.05
- Central Value Ratio (90% CI) Cmin [1, 3]: 1.77

SMILES: CCCCC(=O)N(Cc1ccc(-c2ccccc2-c2nnn[nH]2)cc1)[C@H](C(=O)O)C(C)C [Valsartan]
- Central Value Ratio (90% CI) AUC [1, 4]: 1.31
- Central Value Ratio (90% CI) Cmax [1, 4]: 1.36

SMILES: COc1ccc2c(c1)[C@]13CCCC[C@@H]1[C@H](C2)N(C)CC3 [Dextromethorphan]
- Central Value Ratio (90% CI) AUC [1, 5]: 0.75
- Central Value Ratio (90% CI) Cmax [1, 5]: 0.70

SMILES: Nc1nc(NC2CC2)c2ncn([C@H]3C=C[C@@H](CO)C3)c2n1 [Abacavir]
- Central Value Ratio (90% CI) Cmin ([1]; ABC/DTG/3TC 600/50/300 mg once daily, GLE/PIB 300/120 mg once daily): 1.31

SMILES: Cn1c(=O)c2c(ncn2C)n(C)c1=O [Caffeine]
- Central Value Ratio (90% CI) AUC ([1]; caffeine 100 mg single dose, GLE/PIB 300/120 mg once daily): 1.35

SMILES: CC[C@H](C)C(=O)O[C@H]1C[C@@H](C)C=C2C=C[C@H](C)[C@H](CC[C@@H](O)C[C@@H](O)CC(=O)O)[C@H]21 [Lovastatin acid]
- Central Value Ratio (90% CI) AUC [1, 6]: 4.10
- Central Value Ratio (90% CI) Cmax [1, 6]: 5.73

SMILES: CC(C)OC(=O)[C@H](C)N[P@](=O)(OC[C@H]1O[C@@H](n2ccc(=O)[nH]c2=O)[C@](C)(F)[C@@H]1O)Oc1ccccc1 [Sofosbuvir]
- Central Value Ratio (90% CI) AUC [1, 7]: 2.25
- Central Value Ratio (90% CI) Cmax [1, 7]: 1.66

SMILES: [H]/N=C(/N)c1ccc(NCc2nc3cc(C(=O)N(CCC(=O)O)c4ccccn4)ccc3n2C)cc1 [dabigatran]
- Central Value Ratio (90% CI) AUC [1, 8]: 2.38
- Central Value Ratio (90% CI) Cmax [1, 8]: 2.05

SMILES: C=CC[C@@H]1/C=C(\C)C[C@H](C)C[C@H](OC)[C@H]2O[C@@](O)(C(=O)C(=O)N3CCCC[C@H]3C(=O)O[C@H](/C(C)=C/[C@@H]3CC[C@@H](O)[C@H](OC)C3)[C@H](C)[C@@H](O)CC1=O)[C@H](C)C[C@@H]2OC [Tacrolimus]
- Central Value Ratio (90% CI) AUC [1, 9]: 1.45
- Central Value Ratio (90% CI) Cmax [1, 9]: 1.50

SMILES: C[C@@]1(F)[C@H](O)[C@@H](CO)O[C@H]1n1ccc(=O)[nH]c1=O [GS-331007]
- Central Value Ratio (90% CI) Cmin [1, 7]: 1.85

SMILES: CCCCc1nc(Cl)c(CO)n1Cc1ccc(-c2ccccc2-c2nn[nH]n2)cc1 [Losartan]
- Central Value Ratio (90% CI) AUC [1, 10]: 1.56
- Central Value Ratio (90% CI) Cmax [1, 10]: 2.51

SMILES: CCC(C)(C)C(=O)O[C@H]1C[C@@H](C)C=C2C=C[C@H](C)[C@H](CC[C@@H](O)C[C@@H](O)CC(=O)O)[C@H]21 [Simvastatin acid]
- Central Value Ratio (90% CI) AUC [1, 11]: 4.48
- Central Value Ratio (90% CI) Cmax [1, 11]: 10.7

SMILES: COc1cc2c(cc1Cc1cccc(Cl)c1F)c(=O)c(C(=O)O)cn2[C@H](CO)C(C)C [Elvitegravir]
- Central Value Ratio (90% CI) AUC [1, 12]: 1.47
- Central Value Ratio (90% CI) Cmax [1, 12]: 1.36
- Central Value Ratio (90% CI) Cmin [1, 12]: 1.71

SMILES: C#C[C@]1(O)CC[C@H]2[C@@H]3CCc4cc(O)ccc4[C@H]3CC[C@@]21C [Ethinyl estradiol (EE), Ethinyl estradiol]
- Central Value Ratio (90% CI) AUC [1, 13]: 1.40
- Central Value Ratio (90% CI) Cmax [1, 13]: 1.30
- Central Value Ratio (90% CI) Cmin [1, 13]: 1.56
- Central Value Ratio (90% CI) AUC [1, 14]: 1.28
- Central Value Ratio (90% CI) Cmax [1, 14]: 1.31
- Central Value Ratio (90% CI) Cmin [1, 14]: 1.38

SMILES: COc1ccc2[nH]c([S+]([O-])Cc3ncc(C)c(OC)c3C)nc2c1 (stereo not shown) [Omeprazole]
- Central Value Ratio (90% CI) AUC [1, 15]: 0.79
- Central Value Ratio (90% CI) Cmax [1, 15]: 0.57

SMILES: Cc1nnc(C(=O)NC(C)(C)c2nc(C(=O)NCc3ccc(F)cc3)c(O)c(=O)n2C)o1 [Raltegravir]
- Central Value Ratio (90% CI) AUC [1, 16]: 1.47
- Central Value Ratio (90% CI) Cmax [1, 16]: 1.34
- Central Value Ratio (90% CI) Cmin [1, 16]: 2.64

SMILES: CCC(C)(C)C(=O)O[C@H]1C[C@@H](C)C=C2C=C[C@H](C)[C@H](CC[C@@H]3C[C@@H](O)CC(=O)O3)[C@H]21 [simvastatin]
- Central Value Ratio (90% CI) AUC [1, 11]: 2.32
- Central Value Ratio (90% CI) Cmax [1, 11]: 1.99

SMILES: CC(C)c1nc(N(C)S(C)(=O)=O)nc(-c2ccc(F)cc2)c1/C=C/[C@@H](O)C[C@@H](O)CC(=O)O [rosuvastatin]
- AUC increase [2, 17]: 2.1 fold
- Cmax increase [2, 17]: 5 fold
- Central Value Ratio (90% CI) AUC [1, 18]: 2.15
- Central Value Ratio (90% CI) Cmax [1, 18]: 5.62

SMILES: C#C[C@]1(O)CC[C@H]2[C@@H]3CCC4=CC(=NO)CC[C@@H]4[C@H]3CC[C@@]21CC (mixture of isomers) [Norgestromin]
- Central Value Ratio (90% CI) AUC [1, 14]: 1.44
- Central Value Ratio (90% CI) Cmin [1, 14]: 1.45

SMILES: CC[C@H](C)C(=O)O[C@H]1C[C@H](O)C=C2C=C[C@H](C)[C@H](CC[C@@H](O)C[C@@H](O)CC(=O)O)[C@H]21 [pravastatin]
- AUC increase [2, 19]: 2.3 fold
- Cmax increase [2, 19]: 2.1 fold
- Central Value Ratio (90% CI) AUC [1, 20]: 2.30
- Central Value Ratio (90% CI) Cmax [1, 20]: 2.23

SMILES: CC[C@H](C)C(=O)O[C@H]1C[C@@H](C)C=C2C=C[C@H](C)[C@H](CC[C@@H]3C[C@@H](O)CC(=O)O3)[C@H]21 [lovastatin]
- Central Value Ratio (90% CI) AUC [1, 6]: 1.70

SMILES: C[C@H](Cn1cnc2c(N)ncnc21)OCP(=O)(O)O [Tenofovir]
- Central Value Ratio (90% CI) AUC [1, 21]: 1.29
- Central Value Ratio (90% CI) Cmin [1, 21]: 1.38

SMILES: C#CC1(O)CC[C@H]2[C@@H]3CCC4=CC(=O)CC[C@@H]4[C@H]3CC[C@@]21CC (mixture of isomers) [Norgestrel]
- Central Value Ratio (90% CI) AUC [1, 13]: 1.68
- Central Value Ratio (90% CI) Cmax [1, 13]: 1.37
- Central Value Ratio (90% CI) Cmin [1, 13]: 1.77
- Central Value Ratio (90% CI) AUC [1, 14]: 1.63
- Central Value Ratio (90% CI) Cmax [1, 14]: 1.54
- Central Value Ratio (90% CI) Cmin [1, 14]: 1.75
